Results published in ChEMBL document CHEMBL1201862, “PubChem BioAssay data set” (2004).
The source made the active and inactive calls.

What was measured:
Leucine aminopeptidase = target: T1, Leucine aminopeptidase (Plasmodium falciparum 3D7, UniProt Q8IL11); assay: P. falciparum M17LAP inhibitors, primary screen, biochemical, fluorogenic H-Leu-NHMec substrate, 1536-well (AID 1619); format: functional
T1 sequence (Q8IL11 whole entry): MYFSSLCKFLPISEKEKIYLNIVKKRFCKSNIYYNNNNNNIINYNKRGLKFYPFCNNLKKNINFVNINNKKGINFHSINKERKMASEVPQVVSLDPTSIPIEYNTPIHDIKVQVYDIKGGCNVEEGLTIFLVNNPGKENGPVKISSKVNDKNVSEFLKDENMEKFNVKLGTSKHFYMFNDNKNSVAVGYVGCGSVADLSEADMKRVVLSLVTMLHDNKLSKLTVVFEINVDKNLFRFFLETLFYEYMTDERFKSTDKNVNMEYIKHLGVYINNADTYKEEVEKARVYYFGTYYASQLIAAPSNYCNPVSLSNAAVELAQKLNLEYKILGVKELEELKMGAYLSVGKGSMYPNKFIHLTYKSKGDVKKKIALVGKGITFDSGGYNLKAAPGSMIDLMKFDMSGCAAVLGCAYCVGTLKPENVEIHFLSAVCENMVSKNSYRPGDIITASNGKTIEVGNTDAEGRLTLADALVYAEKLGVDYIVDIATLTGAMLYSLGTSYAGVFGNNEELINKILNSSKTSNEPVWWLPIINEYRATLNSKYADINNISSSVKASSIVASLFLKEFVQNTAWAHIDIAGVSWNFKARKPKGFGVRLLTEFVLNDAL

[1] = target: T2, Alkaline phosphatase, tissue-nonspecific isozyme (Homo sapiens, UniProt P05186)
T2 sequence (P05186 whole entry): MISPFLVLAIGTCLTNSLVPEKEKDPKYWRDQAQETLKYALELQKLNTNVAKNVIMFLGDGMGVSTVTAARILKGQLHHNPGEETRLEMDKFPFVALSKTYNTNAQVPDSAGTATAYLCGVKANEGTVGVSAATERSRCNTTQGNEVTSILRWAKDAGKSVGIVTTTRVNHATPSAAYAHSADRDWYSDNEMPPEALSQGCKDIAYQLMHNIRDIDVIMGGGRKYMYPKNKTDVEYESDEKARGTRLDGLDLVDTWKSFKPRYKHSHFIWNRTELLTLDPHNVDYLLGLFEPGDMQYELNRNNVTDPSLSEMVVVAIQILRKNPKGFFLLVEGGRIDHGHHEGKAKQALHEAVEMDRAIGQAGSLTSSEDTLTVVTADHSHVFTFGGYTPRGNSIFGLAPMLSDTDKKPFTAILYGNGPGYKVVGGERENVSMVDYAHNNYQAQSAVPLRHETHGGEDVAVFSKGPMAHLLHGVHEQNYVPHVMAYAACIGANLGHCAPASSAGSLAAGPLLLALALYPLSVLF

Bcl-2-like protein 10 = target: T3, Bcl-2-like protein 10 (Homo sapiens, UniProt Q9HD36); assay: Concentration-response of Bcl-B inhibitors by biochemical FP with TR3 (AID 1243); format: functional
T3 sequence (Q9HD36 whole entry): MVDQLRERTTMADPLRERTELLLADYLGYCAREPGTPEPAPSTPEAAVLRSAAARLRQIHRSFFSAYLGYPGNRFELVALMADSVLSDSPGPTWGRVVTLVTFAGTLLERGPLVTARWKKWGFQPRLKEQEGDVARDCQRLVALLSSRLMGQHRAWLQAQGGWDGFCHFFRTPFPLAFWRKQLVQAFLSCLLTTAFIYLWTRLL

Insulin-degrading enzyme = target: T4, Insulin-degrading enzyme (Homo sapiens, UniProt P14735); assay: Dose Response: Fluorescence polarization-based cell-based high throughput dose response assay for inhibitors of insulin-degrading enzyme (IDE). [Related pubchem assays: 434962 (Primary screen (IDE inhibitors in singlicate)), 449730 (Counterscreen (Cytotoxicity in triplicate)), 435028 (Confirmation (IDE inhibitors in triplicate)), 434984 (Summary …; format: functional
T4 sequence (P14735 whole entry): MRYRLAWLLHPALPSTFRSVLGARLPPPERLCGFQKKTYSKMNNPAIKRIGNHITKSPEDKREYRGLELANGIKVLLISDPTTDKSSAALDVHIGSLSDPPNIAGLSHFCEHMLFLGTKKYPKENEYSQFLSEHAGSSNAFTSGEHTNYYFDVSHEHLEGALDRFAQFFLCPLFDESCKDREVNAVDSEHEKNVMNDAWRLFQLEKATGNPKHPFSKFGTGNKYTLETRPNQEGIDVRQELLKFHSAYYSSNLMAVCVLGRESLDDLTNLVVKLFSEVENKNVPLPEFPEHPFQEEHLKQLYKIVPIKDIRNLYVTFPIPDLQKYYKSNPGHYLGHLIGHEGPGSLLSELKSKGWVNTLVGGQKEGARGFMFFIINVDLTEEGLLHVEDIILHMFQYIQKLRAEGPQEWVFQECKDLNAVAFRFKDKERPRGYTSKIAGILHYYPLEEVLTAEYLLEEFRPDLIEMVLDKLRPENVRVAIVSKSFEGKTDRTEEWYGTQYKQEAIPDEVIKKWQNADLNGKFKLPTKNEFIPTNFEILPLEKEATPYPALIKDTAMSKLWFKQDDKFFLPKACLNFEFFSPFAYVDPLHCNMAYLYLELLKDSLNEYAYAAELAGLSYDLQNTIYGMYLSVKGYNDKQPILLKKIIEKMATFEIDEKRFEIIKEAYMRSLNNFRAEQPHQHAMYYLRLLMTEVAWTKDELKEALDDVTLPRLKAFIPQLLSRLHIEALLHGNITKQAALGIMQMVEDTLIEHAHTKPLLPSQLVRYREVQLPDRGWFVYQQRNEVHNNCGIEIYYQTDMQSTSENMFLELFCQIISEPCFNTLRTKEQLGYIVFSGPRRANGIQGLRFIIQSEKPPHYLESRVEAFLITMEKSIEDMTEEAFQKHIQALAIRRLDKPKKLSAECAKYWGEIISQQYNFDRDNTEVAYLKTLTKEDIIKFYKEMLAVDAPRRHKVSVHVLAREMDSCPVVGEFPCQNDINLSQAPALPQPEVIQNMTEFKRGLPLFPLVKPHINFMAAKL

[2] = Counterscreen for IDE inhibitors: Luminescence-based cell-based high throughput dose response assay to identify compounds that are cytotoxic to HEK cells. [Related pubchem assays: 434962 (Primary screen (IDE inhibitors in singlicate)), 449730 (Counterscreen (Cytotoxicity in triplicate)), 435028 (Confirmation (IDE inhibitors in triplicate)) …; format: functional; details: HEK293
[3] = mitochondrial function rescue without frataxin homolog – Friedreich's ataxia, plus single-dose screen, dose response (AID 1465); format: functional;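 also: yeast depleted of Yfh1p frataxin homolog grown on glycerol needing respiration; WST-1 tetrazolium dye reduction as measure of cellular dehydrogenase metabolic activity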
Vero = assay: cells; format: functional; details: Chlorocebus sabaeus
[4] = ADP-Glo luciferase signal interference – biochemical, luminescence, cherry-picked samples, set 2, artefact control for CDK5 inhibitor project, dose response (AID 504546); format: functional, cell-based
[5] = Luminescence-based counterscreen assay for KLF5 inhibitors: dose response cell-based high throughput screening assay to identify cytotoxic compounds using the IEC-6 intestinal epithelial cell line. [Related pubchem assays: 1700 (Primary screen.), 1834 (Confirmation screen.), 1858 (Summary AID.), 1905 (Counterscreen.)]; format: functional
HEK293 = assay: cells; details: Homo sapiens;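 also: cells exposed to compound for 14 hours overnight before viability readout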
[6] = HEK-293T viability loss after treatment – luminescence, T-cell screen hits, cytotoxicity control for TCR NF-kB inhibitor project, dose response (AID 489026); format: functional, cell-based;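 also: cells exposed to compound about 14 hours before the viability readout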
Procathepsin L = Procathepsin L (Homo sapiens, UniProt P07711)
Procathepsin L, sequence (P07711 whole entry): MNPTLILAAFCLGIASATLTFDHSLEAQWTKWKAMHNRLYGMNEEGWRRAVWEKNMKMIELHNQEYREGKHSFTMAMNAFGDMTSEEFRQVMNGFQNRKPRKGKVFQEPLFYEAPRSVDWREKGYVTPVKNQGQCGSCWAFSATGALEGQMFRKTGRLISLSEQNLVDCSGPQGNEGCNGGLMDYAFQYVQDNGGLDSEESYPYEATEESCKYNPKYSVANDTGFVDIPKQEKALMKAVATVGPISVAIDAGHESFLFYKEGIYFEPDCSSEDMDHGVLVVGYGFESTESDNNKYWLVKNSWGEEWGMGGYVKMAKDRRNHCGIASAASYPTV

Aspartyl aminopeptidase = Aspartyl aminopeptidase (Plasmodium falciparum 3D7, UniProt Q8I2J3)
Aspartyl aminopeptidase, sequence (Q8I2J3 whole entry): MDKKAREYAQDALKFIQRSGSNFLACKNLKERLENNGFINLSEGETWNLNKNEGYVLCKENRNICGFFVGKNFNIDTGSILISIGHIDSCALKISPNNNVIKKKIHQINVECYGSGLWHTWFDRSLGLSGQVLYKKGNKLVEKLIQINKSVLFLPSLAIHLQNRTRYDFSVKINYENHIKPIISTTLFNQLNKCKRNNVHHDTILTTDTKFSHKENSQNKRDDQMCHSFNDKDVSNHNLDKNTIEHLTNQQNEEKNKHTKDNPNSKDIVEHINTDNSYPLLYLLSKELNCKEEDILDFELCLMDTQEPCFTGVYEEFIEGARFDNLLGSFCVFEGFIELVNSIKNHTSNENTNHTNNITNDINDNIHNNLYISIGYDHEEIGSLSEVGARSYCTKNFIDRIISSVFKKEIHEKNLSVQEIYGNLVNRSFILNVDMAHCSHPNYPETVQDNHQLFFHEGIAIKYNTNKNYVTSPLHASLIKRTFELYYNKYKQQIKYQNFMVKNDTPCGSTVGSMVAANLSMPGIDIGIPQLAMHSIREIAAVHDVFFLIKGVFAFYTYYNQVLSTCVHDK

[7] = inhibition of ADAM10 peptide cleavage – biochemical, FRET peptide substrate, recombinant human ADAM10, selectivity assay for ADAM17 exosite inhibitor project, dose response (AID 743259);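 also: ADAM10 enzyme cleaving a FRET peptide substrate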
[8] = target: Disintegrin and metalloproteinase domain-containing protein 17 (Homo sapiens, UniProt P78536); assay: exosite inhibitors of ADAM17, dose response, biochemical (AID 743260)
[9] = target: Scavenger receptor class B member 1 (Mus musculus, UniProt Q61009); assay: mouse SR-BI DiI-HDL uptake blockers – ldlA[mSR-BI] cells, fluorescence, cherry pick, dose response (AID 493194); format: functional, cell-based;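 also: cellular uptake of fluorescent DiI-labeled HDL measured as cell fluorescence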
Scavenger receptor class B member 1, sequence (Q61009 whole entry): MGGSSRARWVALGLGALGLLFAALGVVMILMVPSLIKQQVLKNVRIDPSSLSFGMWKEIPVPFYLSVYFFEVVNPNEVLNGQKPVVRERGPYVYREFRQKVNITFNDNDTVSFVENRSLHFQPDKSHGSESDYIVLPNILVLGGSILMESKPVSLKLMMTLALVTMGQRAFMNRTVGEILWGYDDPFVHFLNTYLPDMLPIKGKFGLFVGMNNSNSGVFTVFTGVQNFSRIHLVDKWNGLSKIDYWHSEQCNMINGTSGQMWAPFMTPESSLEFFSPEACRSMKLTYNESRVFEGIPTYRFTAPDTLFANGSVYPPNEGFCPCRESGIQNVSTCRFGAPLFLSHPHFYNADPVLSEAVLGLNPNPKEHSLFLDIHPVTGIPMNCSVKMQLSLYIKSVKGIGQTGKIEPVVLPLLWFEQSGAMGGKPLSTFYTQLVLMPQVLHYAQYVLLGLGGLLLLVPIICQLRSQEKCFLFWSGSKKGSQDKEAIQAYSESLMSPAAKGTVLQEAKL

Beta-galactosidase = Beta-galactosidase (Escherichia coli, UniProt Q8VNN2); format: functional
Beta-galactosidase, sequence (Q8VNN2 whole entry): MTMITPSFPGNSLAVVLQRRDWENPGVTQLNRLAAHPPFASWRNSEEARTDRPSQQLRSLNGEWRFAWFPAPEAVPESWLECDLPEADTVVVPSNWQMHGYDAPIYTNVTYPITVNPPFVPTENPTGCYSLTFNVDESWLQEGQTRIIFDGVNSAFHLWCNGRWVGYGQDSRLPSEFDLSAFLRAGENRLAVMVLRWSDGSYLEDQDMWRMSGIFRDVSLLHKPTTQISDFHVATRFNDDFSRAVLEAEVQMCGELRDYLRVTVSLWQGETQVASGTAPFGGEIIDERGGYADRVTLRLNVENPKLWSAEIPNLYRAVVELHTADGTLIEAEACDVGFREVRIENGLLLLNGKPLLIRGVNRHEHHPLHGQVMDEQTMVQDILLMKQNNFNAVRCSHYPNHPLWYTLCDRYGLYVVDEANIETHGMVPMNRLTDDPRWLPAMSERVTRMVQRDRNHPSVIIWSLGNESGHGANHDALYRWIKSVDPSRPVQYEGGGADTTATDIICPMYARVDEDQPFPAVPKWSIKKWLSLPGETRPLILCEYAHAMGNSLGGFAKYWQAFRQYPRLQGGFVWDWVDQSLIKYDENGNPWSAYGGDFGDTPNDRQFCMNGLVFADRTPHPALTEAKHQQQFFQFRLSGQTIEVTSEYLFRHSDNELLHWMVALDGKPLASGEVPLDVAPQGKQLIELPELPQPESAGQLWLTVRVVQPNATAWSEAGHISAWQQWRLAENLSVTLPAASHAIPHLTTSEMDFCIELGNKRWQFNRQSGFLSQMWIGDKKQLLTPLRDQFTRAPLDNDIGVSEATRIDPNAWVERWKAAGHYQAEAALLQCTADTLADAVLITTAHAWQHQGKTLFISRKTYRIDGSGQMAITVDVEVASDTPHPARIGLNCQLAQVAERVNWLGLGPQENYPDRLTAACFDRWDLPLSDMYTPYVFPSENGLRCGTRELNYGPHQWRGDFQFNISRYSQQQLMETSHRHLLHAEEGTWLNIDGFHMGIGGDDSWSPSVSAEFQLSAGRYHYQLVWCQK

NS3 = NS3 (Hepatitis C virus, UniProt A3EZJ3); assay: PubChem AID 2173; design: species or system Hepacivirus hominis
[10] = target: Polyadenylate-binding protein 1 (Homo sapiens, UniProt P11940); assay: blockers of PABP interaction with poly(A) – biochemical, fluorescence polarization, […] (AID 2014)
Polyadenylate-binding protein 1, sequence (P11940 whole entry): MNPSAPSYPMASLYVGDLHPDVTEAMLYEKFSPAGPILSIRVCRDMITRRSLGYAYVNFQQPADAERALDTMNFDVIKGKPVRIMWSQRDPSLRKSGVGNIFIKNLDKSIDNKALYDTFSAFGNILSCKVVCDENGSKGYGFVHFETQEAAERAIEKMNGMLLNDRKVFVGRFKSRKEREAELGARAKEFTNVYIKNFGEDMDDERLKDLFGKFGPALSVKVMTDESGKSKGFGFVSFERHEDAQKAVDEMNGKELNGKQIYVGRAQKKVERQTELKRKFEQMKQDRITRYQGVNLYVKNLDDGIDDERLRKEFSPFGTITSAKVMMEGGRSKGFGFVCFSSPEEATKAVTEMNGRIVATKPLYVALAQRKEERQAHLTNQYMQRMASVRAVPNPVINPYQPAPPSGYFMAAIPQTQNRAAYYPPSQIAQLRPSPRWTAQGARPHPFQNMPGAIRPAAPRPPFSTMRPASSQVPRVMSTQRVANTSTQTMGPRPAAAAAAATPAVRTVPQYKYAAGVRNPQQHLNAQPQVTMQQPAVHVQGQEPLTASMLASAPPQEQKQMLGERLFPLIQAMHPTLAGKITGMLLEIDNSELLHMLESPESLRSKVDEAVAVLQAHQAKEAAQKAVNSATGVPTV

[11] = target: Eukaryotic translation initiation factor 4H (Homo sapiens, UniProt Q15056); assay: eIF4H binding inhibition – biochemical, uHTS, fluorescence polarization, translation initiation inhibitor project, primary screen (AID 2012)
[12] = target: T5, Heat shock 70 kDa protein 1A (Homo sapiens, UniProt P0DMV8); assay: small-molecule inhibition of Hsp70 – biochemical, TR-FRET (AID 786)
T5 sequence (P0DMV8 whole entry): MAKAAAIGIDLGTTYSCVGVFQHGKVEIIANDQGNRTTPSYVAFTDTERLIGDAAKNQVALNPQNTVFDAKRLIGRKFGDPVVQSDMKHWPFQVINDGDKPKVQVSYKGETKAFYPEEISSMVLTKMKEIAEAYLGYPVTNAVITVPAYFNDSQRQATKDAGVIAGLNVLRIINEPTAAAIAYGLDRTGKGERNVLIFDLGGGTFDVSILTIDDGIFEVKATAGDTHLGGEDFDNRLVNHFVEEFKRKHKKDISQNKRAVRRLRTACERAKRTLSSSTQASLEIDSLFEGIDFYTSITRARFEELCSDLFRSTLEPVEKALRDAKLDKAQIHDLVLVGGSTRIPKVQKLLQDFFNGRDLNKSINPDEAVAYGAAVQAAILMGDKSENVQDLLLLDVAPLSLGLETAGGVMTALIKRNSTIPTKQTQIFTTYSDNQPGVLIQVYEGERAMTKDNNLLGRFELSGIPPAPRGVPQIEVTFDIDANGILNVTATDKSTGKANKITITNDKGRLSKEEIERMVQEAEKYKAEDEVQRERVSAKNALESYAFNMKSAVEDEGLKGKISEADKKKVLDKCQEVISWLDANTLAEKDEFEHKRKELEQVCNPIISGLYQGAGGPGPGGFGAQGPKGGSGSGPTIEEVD

[13] = target: T5, Heat shock 70 kDa protein 1A; assay: small molecules displacing fluorescent ligand from Hsp70 – biochemical, fluorescence polarization, primary screen (AID 583)
Estrogen receptor = Estrogen receptor (Homo sapiens, UniProt P03372);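 also: potency for inhibiting coactivator peptide recruitment to the receptor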
Estrogen receptor, sequence (P03372 whole entry): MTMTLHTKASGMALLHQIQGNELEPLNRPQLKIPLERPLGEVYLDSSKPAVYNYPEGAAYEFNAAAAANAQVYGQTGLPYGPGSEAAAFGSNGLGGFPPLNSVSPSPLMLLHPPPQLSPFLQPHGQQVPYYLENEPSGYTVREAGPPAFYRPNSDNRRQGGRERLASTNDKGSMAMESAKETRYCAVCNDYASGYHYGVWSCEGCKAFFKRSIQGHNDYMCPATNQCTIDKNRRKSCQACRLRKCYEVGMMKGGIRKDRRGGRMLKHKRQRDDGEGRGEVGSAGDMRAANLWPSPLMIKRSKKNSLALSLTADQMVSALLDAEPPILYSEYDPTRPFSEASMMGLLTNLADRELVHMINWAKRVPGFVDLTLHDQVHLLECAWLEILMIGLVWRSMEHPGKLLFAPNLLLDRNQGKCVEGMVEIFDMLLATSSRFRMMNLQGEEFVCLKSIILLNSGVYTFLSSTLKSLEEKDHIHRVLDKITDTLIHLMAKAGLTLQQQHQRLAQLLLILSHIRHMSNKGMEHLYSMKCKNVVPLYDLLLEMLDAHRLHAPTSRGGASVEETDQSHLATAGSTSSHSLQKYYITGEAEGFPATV

[14] = target: T6, Microphthalmia-associated transcription factor (Homo sapiens, UniProt O75030); assay: reducers of TRPM1 reporter luminescence, concentration series – cell-based, SK-MEL-5, cherry-picked, set 3, MITF inhibitor project, dose response (AID 493073); format: functional;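 also: SK-MEL-5 melanoma cells with luciferase driven by the MITF target TRPM1 promoter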
T6 sequence (O75030 whole entry): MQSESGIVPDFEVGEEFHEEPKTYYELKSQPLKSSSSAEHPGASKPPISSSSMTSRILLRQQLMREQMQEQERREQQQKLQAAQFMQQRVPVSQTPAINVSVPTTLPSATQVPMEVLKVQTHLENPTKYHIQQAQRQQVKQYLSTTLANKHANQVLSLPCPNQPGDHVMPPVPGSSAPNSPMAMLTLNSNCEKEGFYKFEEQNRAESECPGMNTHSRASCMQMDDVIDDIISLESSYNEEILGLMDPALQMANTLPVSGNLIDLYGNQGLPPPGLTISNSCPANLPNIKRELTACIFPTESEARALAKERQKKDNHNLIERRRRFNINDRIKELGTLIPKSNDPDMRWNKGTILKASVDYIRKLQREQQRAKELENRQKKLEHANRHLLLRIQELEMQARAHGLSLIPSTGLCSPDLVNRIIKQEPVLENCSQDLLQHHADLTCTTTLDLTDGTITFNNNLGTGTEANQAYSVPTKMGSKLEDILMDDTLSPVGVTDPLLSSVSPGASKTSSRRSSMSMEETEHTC

HeLa = assay: Cytotoxicity counterscreen assay for transcriptional activators of heat shock protein 70 (Hsp70). [Related pubchem assays: 1203, 1252 ]; format: functional; details: Homo sapiens;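 also: cells exposed to compound for 16 hours before readout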

O=C1/C(=C/c2cccs2)NC(=S)N1C1CC1
IC50 (Leucine aminopeptidase): 6.44 µM (active)
EC50 [1]: > 100 µM (not active)

Cc1cc(I)c2c(c1)C1C=CCC1C(C(=O)O)N2 (stereo not given)
EC50 (Bcl-2-like protein 10): 20.7 µM (active)

Cc1ccccc1N1C(=O)NC(=O)/C(=C/c2ccc(N3CCOCC3)o2)C1=O
IC50 (Insulin-degrading enzyme): 30.5 µM (not active)
IC50 [2]: > 55.6 µM (not active)
EC50 [3]: > 100 µM (active)

Cc1ccc(C(=O)O/N=C(\N)c2ccccn2)c(C)c1
CC50 (Vero): 22.5 µM (active)
AC50 [4]: 17.7 µM (active)
IC50 [5]: 13.1 µM (not active)
IC50 (HEK293): > 20 µM (inactive)
IC50 [6]: > 80 µM (inactive)

O=C(Nc1cc(N2CCOCC2)ncn1)NC1(C(F)(F)F)Oc2ccccc2O1
IC50 (Procathepsin L): > 59.6 µM (not active)
IC50 (Aspartyl aminopeptidase): 2.7 µM (active)

N=C1/C(=C/c2cccn2CCOc2ccccc2)C(=O)N=C2SC=C(c3ccccc3)N12
IC50 [7]: > 69.5 µM (inactive)
IC50 [8]: > 69.5 µM (inactive)
AC50 [9]: 16.9 µM (active)

C=CCN1CC[C@]23c4c5ccc(O)c4OC2C(=O)CC[C@@]3(O)C1C5 (stereo not given in full)
EC50 (Beta-galactosidase): > 31.5 µM (inactive)

Nc1c(C(=O)Nc2ccccc2F)sc2nc(-c3ccco3)ccc12
IC50 (NS3): > 36.3 µM (not active)

Cc1ccc(NC(=O)COC(=O)/C=C/c2ccco2)cc1S(=O)(=O)N(C)C
IC50 [10]: 90.5 µM (active)
IC50 [11]: 21.9 µM (active)

CCOC(=O)C1CCN(C(=O)Cc2c(F)cccc2Cl)CC1
IC50 [12]: > 100 µM (not active)
IC50 [13]: > 100 µM (not active)

O=C(N/N=C/c1cccc(Oc2ccc([N+](=O)[O-])cc2[N+](=O)[O-])c1)c1cncc(Br)c1
IC50 (Estrogen receptor): 27.9 µM (active)
AC50 [14]: 243 µM (active)

CCOC(=O)C1(C/C(C)=N/NC(N)=O)CC(C)OC1=O (stereo not given)
CC50 (HeLa): > 99 µM (not active)
